Laboratory results taken from patent publication US7906620B2, “Tumor associated antigen, peptides thereof, and use of same as anti-tumor vaccines” (Yeda Research and Development Co. Ltd., priority 2002, dated 2011).

Experiments:
Type in all cases: in vivo
[1] = tested on: RMAS-HHD-B7.1 target cells; experiment: Immunogenicity in HHD mice after immunization with dendritic cells pulsed with peptide pools; details: DCs pulsed with pools of 2-4 peptides; effector-to-target ratio 25:1
Experimental: FIGS. 13A and 13B are graphs showing immunogenicity of PAP- or STEAP-derived peptides in HHD mice. The mice were immunized i.v. one time with 1×10^6 peptide-loaded syngeneic dendritic cells (DCs). The DCs were loaded separately with individual peptides, washed and pooled before immunization. Spleens were removed on day 10, and splenocytes were re-stimulated in vitro by 100 μM PAP-derived (FIG. 13A) or STEAP-derived (FIG. 13B) peptides in OPTIMEM for 2 h at 37° C., 5% CO2, followed by restimulation of lymphocytes for 4 more days in RPMI-HEPES, as described. CTL assays were performed on day 5 with individual PAP-, STEAP-derived peptides loaded on RMAS-HHD-B7.1 as targets. Non-relevant HIV derived peptide-loaded RMAS-HHD-B7.1 cells were used as negative controls. The effector-to-target ratio of 25:1 is shown.
(§1) The immunogenicity of the peptides, namely their potential to induce T cell responses, was subsequently examined in an in vivo model. A strain of β2 microglobulin (β2m) HLA-A2.1 Monochain Transgenic, H-2D^b−/−Xβ2m^−/− double knockout mice (HHD mice) was used. Upon vaccination of these mice, a repertoire of human HLA-A2.1 restricted CTLs is produced. The lysis patterns of each of the individual peptides loaded on target cells were first evaluated following immunization with syngeneic dendritic cells pulsed with pools of 2-4 synthetic peptides derived from each examined protein.

EL-4-HHD target cells = experiment: Immunogenicity in HHD mice after immunization with single peptide-loaded RMAS-HHD-B7.1 cells; details: single peptide immunization i.p. three times; E:T 100:1 to 12.5:1
Experimental: FIGS. 14A and 14B are graphs showing immunogenicity of PAP-3 (FIG. 14A) and STEAP-3 (FIG. 14B) peptides in HHD mice. Mice immunized i.p. three times at 7-day intervals, with 2×10^6 irradiated (5000 rad) were single peptide-loaded (PAP-3 for FIG. 14A, STEAP-3 for FIG. 14B) TAP-2 deficient RMAS-HHD-B7.1 cells. Spleens were removed on day 10, and splenocytes were restimulated in vitro by 100 μM PAP-3 or STEAP-3 peptides in OPTIMEM for 2 h at 37° C., 5% CO2, followed by restimulation of lymphocytes for 4 more days in RPMI-HEPES, as described. CTL assays were performed on day 5 with PAP-3 or STEAP-3 loaded on EL4-HHD as targets. Unloaded EL4-HHD or non-relevant HIV derived peptide-loaded EL4-HHD cells were used as negative controls. The effector-to-target ratios of 100:1; 50:1; 25:1; 12.5:1 are shown.
as §1

PC3-HHD tumors = experiment: Adoptive transfer of anti-peptide CTL to CD1 nude mice bearing PC3-HHD tumors; details: for complete rejection of tumors: local injection day 7, PAP-3: 35×10^6 lymphocytes (11×10^6 CD8+), STEAP-3: 50×10^6 (3×10^6 CD8+), IL-2; for tumor growth in the other mice: same groups as complete rejection
Excerpt: FIGS. 19A and 19B are graphs showing that adoptively transferred anti-peptide CTL retard tumor growth. HHD derived anti-PAP3 (FIG. 19A) or STEAP-3 (FIG. 19B) were stimulated in vitro and transferred to CD1 nude mice bearing 7 day PC3-HHD tumors (expressing PAP and STEAP) as described. Tumor growth was followed for 38 days.
HHD mice were immunized i.p. 6 times (twice at week) with 10^6 syngeneic dendritic cells pulsed with either PAP-3, STEAP-3 or irrelevant (tyrosinase-derived, HLA-A2.1 binding) peptides. Spleens were removed on day 10, and splenocytes were restimulated in vitro by 100 μM of either PAP-3 or STEAP-3 peptides in OPTIMEM for 2 h at 37° C., 5% CO2, followed by restimulation of lymphocytes for 4 more days in lymphocyte medium (RPMI-1640 supplemented with 25 mM HEPES, 10% heat-inactivated FCS, 0.1 mM non-essential amino acids, 1 mM sodium pyruvate, 2 mM. L-glutamine, 40 microg/ml garamycin and 5×10^−5 M 2-mercaptoethanol). Total lymphocytes were suspended at 10^6/ml and activated with plate-bound anti-CD3 mAb (145-2C11) for 72 h at 37° C. in 5% CO2 in 24-well plates. Activated cells were resuspended at a concentration of 3×10^5/ml lymphocyte medium with IL-2 (100 U/ml) for 3 days, then diluted 1:3 in fresh medium with IL-2 for an additional 4 days. Lymphocytes were harvested, samples were incubated with anti-CD4, anti-CD8 or isotype control mAb (all obtained from Catalog, USA), and analyzed using CellQuest software. Seven to nine CD1 nude mice per group received 4 Gy total body irradiation from a 137CS source, followed by s.c. inoculation with 5×10^6 PC3-HHD13 cells in Matrigel (BD PharMingen, San Diego, Calif.) to initiate tumors. Seven days later, mice were injected locally with 35×10^6 PAP-3 or tyrosinase specific lymphocytes (11×10^6 were CD8+), 50×10^6 STEAP-3 specific lymphocytes (3×10^6 were CD8+) or PBS. IL-2 (1000 U) was injected twice a day for five consecutive days. Tumor size was measured 3 times per week.

Row | Sequence | lysis of peptide-loaded RMAS-HHD-B7.1 target cells [1] | lysis of peptide-loaded EL-4-HHD target cells (EL-4-HHD target cells) | complete rejection of tumors (PC3-HHD tumors) | tumor growth in the other mice (PC3-HHD tumors)
1 | LLLGTIHAL (listed as Homo sapiens) [STEAP-3, STEAP start position 262] | significant lysis | remarkable and dose-dependent lysis | 2/9 | retarded growth
2 | ILLWQPIPV (listed as Homo sapiens) [PAP-3, PAP start position 135] | significant lysis | remarkable and dose-dependent lysis | 4/8 | retarded growth
